IC50 data for 15 compounds are collected here from US12030862B2, “Allosteric chromenone inhibitors of phosphoinositide 3-kinase (PI3K) for the treatment of disease” (Petra Pharma Corporation, priority 2021, dated 2024).

Assay [1] concerns the target T1, PI3K-α (PIK3CA) H1047R mutant (p110α/p85α complex) (Homo sapiens, UniProt P42336, H1047R).
T1 construct: Recombinant, catalytically active human full length PIK3KA Wild-type and H1047R mutant were purchased as 1:1 complex; 6xHis (N); purchased EMD Millipore Sigma 14-792M
Put plainly: PI3K-Alpha kinase (PIK3CA) biochemical ADP-Glo assay, H1047R mutant. Conditions: 20 uM ATP, 1 h pre-incubation. The source says:
(§1) PI3K-Alpha kinase (PIK3CA) activity, wild-type and H1047R mutant and determining IC50 values for inhibitors
(§2) Recombinant, catalytically active human full length PIK3KA Wild-type and H1047R mutant were purchased as 1:1 complex of N-terminal 6× his tagged p110α (catalytic) and untagged p85α (regulatory subunit) from EMD Millipore Sigma (cat. no. 14-602M and 14-792M, respectively). PIP2diC8 (Avanti Polar Lipids Inc., cat. no. 850185) or Soy PI (Avanti Polar Lipids Inc., cat. No. 840044P) was used as lipid substrate. PIP2diC8 or PI lyophilized powder was dissolved in milliQ water to a concentration of 1 mM just before use. 10 mM stock compounds in DMSO were serially diluted 1:3 to generate a 10-point curve and plated using an acoustic liquid handler system (Echo 550 series instrument, Labcyte). A 10× intermediate compound plate (200 uM starting compound concentration and 10% DMSO) was prepared before starting the reaction. A typical reaction mixture (50 uL) comprised 40 mM HEPES buffer, pH 7.4, 25 mM MgCl2, 0.01% v/v triton-X-100, 1% v/v DMSO, 20 mM NaCl, 1-5 nM WT or H1047R PI3K protein, 20 uM ATP, and 50 uM PIP2diC8 or Soy PI. 1% DMSO buffer alone without test compound was employed as MAX control (full activity in the absence of any inhibitor), and no enzyme control was used to determine the level of background Adenosine 5′-diphosphate (ADP) (MIN control). First, Wild-type (WT) and H1047R mutant protein in kinase buffer with all components except ATP were incubated with or without compound at 27° C. for 1 h. After the pre-incubation, the reaction was initiated by the addition of 20 uL of 50 uM ATP (20 uM final concentration). The reaction was allowed to proceed until about 10% conversion of ATP (2 uM ADP) at 27° C. After that time, 5 uL of reaction was mixed with 5 uL of ADP-Kinase Glo Reagent (ADP-Glo Kinase assay kit, Promega cat. no. V9102) supplemented with MgCl2 10 mM to stop the reaction and deplete the remaining ATP for 40 min at room temperature. Then, 10 uL of Kinase Detection Reagent (ADP-Glo Kinase assay kit, Promega cat. no. V9102) was added to simultaneously convert ADP to ATP and allow the newly synthesized ATP to be measured using a luciferase/luciferin reaction. After 30 min at room temperature the light generated was measured using a luminometer (EnVision plate reader, Perkin Elmer). Process data through Genedata-Screener tool. Relative IC50 values are determined using luminescence units by calculating percent inhibition with respect to on-plate “MIN” and “MAX” controls. Data was analyzed using a 4-parameter nonlinear logistic equation (four-parameter logistic concentration-response curve): Y=bot+[(top−bot)/1+(x/IC50)slope] where Y=% inhibition, X=concentration yielding y% inhibition, Bottom=minimum value of y attained by curve, Top=maximum value of y attained by curve and Slope=steepness of curve at IC50. % Inh=[(median Max−x/median Max−median Min)]·100 IC50: concentration of compound that reduces a given response (ligand binding, enzyme response) by 50%. IC50 relative: concentration giving half the compound's maximum response.
(§3) For IC50 values shown in Table A, “A” means IC50<0.5 μM; “B” means IC50 ranging between 0.5 μM and 1.0 μM; “C” means IC50 ranging between 1 μM and 5 μM; “D” means IC50 ranging between 5 μM and 10 μM; “E” means IC50>10 μM.
For orientation: ADP-Glo turns the ADP formed in a reaction into a luminescent signal.

Assay [2] deals with T2, PI3K-α (PIK3CA) wild-type (WT) (p110α/p85α complex) (Homo sapiens, UniProt P42336).
T2 construct: Recombinant, catalytically active human full length PIK3KA Wild-type and H1047R mutant were purchased as 1:1 complex; 6xHis (N); purchased EMD Millipore Sigma 14-602M
Put plainly: PI3K-Alpha kinase (PIK3CA) biochemical ADP-Glo assay, wild-type. Particulars: 20 uM ATP, 1 h pre-incubation.
From the text: as §1, §2, §3

[3] abbreviates: PIP2diC8 lipid substrate (footnote 1).

Bounds are passed on as bounds.

T1 sequence (P42336 whole entry H1047R): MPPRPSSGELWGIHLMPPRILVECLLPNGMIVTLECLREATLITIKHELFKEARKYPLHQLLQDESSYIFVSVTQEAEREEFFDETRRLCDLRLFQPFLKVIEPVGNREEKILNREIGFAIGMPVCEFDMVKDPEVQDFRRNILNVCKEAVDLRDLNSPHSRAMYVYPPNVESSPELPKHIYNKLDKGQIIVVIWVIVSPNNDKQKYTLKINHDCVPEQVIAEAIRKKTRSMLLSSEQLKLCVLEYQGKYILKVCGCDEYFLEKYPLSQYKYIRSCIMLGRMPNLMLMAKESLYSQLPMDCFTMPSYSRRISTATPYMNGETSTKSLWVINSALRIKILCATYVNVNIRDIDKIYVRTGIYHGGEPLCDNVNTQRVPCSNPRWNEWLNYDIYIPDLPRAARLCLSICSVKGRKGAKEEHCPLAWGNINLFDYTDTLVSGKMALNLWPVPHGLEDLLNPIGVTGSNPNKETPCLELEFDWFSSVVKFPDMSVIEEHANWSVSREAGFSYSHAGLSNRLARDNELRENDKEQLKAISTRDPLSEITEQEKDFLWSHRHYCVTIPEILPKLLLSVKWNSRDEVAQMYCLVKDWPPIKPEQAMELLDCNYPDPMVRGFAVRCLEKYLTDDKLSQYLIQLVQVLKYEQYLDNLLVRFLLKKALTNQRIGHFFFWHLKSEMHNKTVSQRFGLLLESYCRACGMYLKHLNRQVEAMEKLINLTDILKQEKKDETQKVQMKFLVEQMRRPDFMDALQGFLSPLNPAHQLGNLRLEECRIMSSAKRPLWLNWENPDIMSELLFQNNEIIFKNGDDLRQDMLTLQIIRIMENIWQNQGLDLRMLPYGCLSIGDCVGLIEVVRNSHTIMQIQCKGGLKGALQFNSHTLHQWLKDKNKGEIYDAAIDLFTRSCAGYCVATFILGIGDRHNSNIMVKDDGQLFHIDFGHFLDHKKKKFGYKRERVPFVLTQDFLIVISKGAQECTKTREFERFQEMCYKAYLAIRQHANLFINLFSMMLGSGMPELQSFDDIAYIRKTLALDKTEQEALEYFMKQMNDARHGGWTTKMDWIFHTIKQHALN
T1 sequence (P27986 whole entry partner): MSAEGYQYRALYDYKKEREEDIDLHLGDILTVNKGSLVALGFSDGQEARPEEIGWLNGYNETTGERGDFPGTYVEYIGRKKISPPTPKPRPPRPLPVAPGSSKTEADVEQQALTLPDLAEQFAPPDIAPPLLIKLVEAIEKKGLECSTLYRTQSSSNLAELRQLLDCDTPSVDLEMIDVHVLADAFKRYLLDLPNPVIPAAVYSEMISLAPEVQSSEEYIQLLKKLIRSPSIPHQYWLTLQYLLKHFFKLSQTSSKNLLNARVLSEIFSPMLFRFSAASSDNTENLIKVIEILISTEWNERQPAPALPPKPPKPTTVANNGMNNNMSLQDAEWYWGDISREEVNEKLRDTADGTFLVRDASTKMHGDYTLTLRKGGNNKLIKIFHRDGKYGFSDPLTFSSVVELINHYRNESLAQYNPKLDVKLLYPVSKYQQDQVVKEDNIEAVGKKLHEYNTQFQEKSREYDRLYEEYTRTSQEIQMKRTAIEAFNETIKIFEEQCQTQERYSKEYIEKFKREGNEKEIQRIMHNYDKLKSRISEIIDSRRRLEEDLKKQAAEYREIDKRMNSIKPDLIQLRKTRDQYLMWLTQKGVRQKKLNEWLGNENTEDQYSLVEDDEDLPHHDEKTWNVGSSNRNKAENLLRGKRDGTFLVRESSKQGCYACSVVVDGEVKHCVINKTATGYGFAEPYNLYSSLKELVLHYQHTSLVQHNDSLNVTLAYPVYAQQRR

Turning to `Cc1cc(C(C)Nc2ccccc2C(=O)O)c2oc(C3CCCCC3)cc(=O)c2c1` (single isomer, unassigned; isomer 1) [Example 8, 2-[1-(2-Cyclohexyl-6-methyl-4-oxo-chromen-8-yl)ethylamino]benzoic acid, Isomer 1], the results for the IC50 in assay [1] (setting [3]) and in assay [2] (setting [3]) were 1 to 5 µM and more than 10 µM, respectively.
On the same counts, the results for `Cc1cc(C(C)Nc2ccccc2C(=O)O)c2oc(C3CCC(C)(C)CC3)cc(=O)c2c1` (single isomer, unassigned; isomer 1) [Example 10, 2-[1-[2-(4,4-Dimethylcyclohexyl)-6-methyl-4-oxo-chromen-8-yl]ethylamino]benzoic acid, Isomer 1] are less than 0.5 µM and 1 to 5 µM.
For `CC(Nc1ccccc1C(=O)O)c1cccc2c(=O)cc(C3CCCCC3)oc12` (single isomer, unassigned; isomer 1) [Example 12, 2-[1-(2-Cyclohexyl-4-oxo-chromen-8-yl)ethylamino]benzoic acid, Isomer 1], in that order: more than 10 µM and more than 10 µM.
For `Cc1cc(C(C)Nc2ccccc2C(=O)O)c2oc(C3CCC(F)(F)CC3)cc(=O)c2c1` (single isomer, unassigned; isomer 1) [Example 14, 2-[1-[2-(4,4-Difluorocyclohexyl)-6-methyl-4-oxo-chromen-8-yl]ethylamino]benzoic acid, Isomer 1], the IC50 in assay [1] (Soy PI lipid substrate) and in assay [2] (Soy PI lipid substrate) was more than 10 µM each time.
On to `Cc1cc(C(C)Nc2ccccc2C(=O)O)c2oc(C3CCC(F)(F)CC3)c(C)c(=O)c2c1` (single isomer, unassigned; isomer 1) [Example 16, 2-[1-[2-(4,4-Difluorocyclohexyl)-3,6-dimethyl-4-oxo-chromen-8-yl]ethylamino]benzoic acid, Isomer 1], for which the IC50 is less than 0.5 µM in assay [1] (Soy PI lipid substrate) and 0.5 to 1 µM in assay [2] (Soy PI lipid substrate).
For `Cc1cc(C(C)Nc2ccccc2C(=O)O)c2oc(C3Cc4ccccc4C3)cc(=O)c2c1` (single isomer, unassigned; isomer 1) [Example 18, 2-[1-(2-Indan-2-yl-6-methyl-4-oxo-chromen-8-yl)ethylamino]benzoic acid, Isomer 1], in that order: 1 to 5 µM and more than 10 µM.
For `Cc1cc(C(C)Nc2ccccc2C(=O)O)c2oc(C3Cc4ccccc4C3)c(C)c(=O)c2c1` (single isomer, unassigned; isomer 1) [Example 21, 2-[1-(2-Indan-2-yl-3,6-dimethyl-4-oxo-chromen-8-yl)ethylamino]benzoic acid, Isomer 1], the figures for the half-maximal inhibitory concentration (IC50) in assay [1] (Soy PI lipid substrate) and in assay [2] (Soy PI lipid substrate) were less than 0.5 µM and 1 to 5 µM, respectively.
Turning to `Cc1cc(C(C)Nc2ccccc2C(=O)O)c2oc(C3CCCCC3)cc(=O)c2c1` (single isomer, unassigned; isomer 2) [Example 9, 2-[1-(2-Cyclohexyl-6-methyl-4-oxo-chromen-8-yl)ethylamino]benzoic acid, Isomer 2], the IC50 in assay [1] (setting [3]) and in assay [2] (setting [3]) was less than 0.5 µM throughout.
For `Cc1cc(C(C)Nc2ccccc2C(=O)O)c2oc(C3CCC(C)(C)CC3)cc(=O)c2c1` (single isomer, unassigned; isomer 2) [Example 11, 2-[1-[2-(4,4-Dimethylcyclohexyl)-6-methyl-4-oxo-chromen-8-yl]ethylamino]benzoic acid, Isomer 2], the IC50 in assay [1] (setting [3]) and in assay [2] (setting [3]) was more than 10 µM each time.
For `CC(Nc1ccccc1C(=O)O)c1cccc2c(=O)cc(C3CCCCC3)oc12` (single isomer, unassigned; isomer 2) [Example 13, 2-[1-(2-Cyclohexyl-4-oxo-chromen-8-yl)ethylamino]benzoic acid, Isomer 2], the values for the IC50 in assay [1] (Soy PI lipid substrate) and in assay [2] (Soy PI lipid substrate) were less than 0.5 µM and more than 10 µM, respectively.
`Cc1cc(C(C)Nc2ccccc2C(=O)O)c2oc(C3CCC(F)(F)CC3)cc(=O)c2c1` (single isomer, unassigned; isomer 2) [Example 15, 2-[1-[2-(4,4-Difluorocyclohexyl)-6-methyl-4-oxo-chromen-8-yl]ethylamino]benzoic acid, Isomer 2]: the figures for the 50% inhibitory concentration (IC50) in assay [1] (Soy PI lipid substrate) and in assay [2] (Soy PI lipid substrate) were less than 0.5 µM and more than 10 µM, respectively.
For `Cc1cc(C(C)Nc2ccccc2C(=O)O)c2oc(C3CCC(F)(F)CC3)c(C)c(=O)c2c1` (single isomer, unassigned; isomer 2) [Example 17, 2-[1-[2-(4,4-Difluorocyclohexyl)-3,6-dimethyl-4-oxo-chromen-8-yl]ethylamino]benzoic acid, Isomer 2], in that order: more than 10 µM and more than 10 µM.
For `Cc1cc(C(C)Nc2ccccc2C(=O)O)c2oc(C3Cc4ccccc4C3)cc(=O)c2c1` (single isomer, unassigned; isomer 2) [Example 19, 2-[1-(2-Indan-2-yl-6-methyl-4-oxo-chromen-8-yl)ethylamino]benzoic acid, Isomer 2], in that order: less than 0.5 µM and 1 to 5 µM.
On the same counts, the results for `Cc1cc(C(C)Nc2ccccc2C(=O)O)c2oc(C3Cc4ccccc4C3)c(C)c(=O)c2c1` (single isomer, unassigned; isomer 2) [Example 22, 2-[1-(2-Indan-2-yl-3,6-dimethyl-4-oxo-chromen-8-yl)ethylamino]benzoic acid, Isomer 2] are more than 10 µM and more than 10 µM.
Consider `Cc1cc(C(C)Nc2ccccc2C(=O)O)c2oc(C3(c4ccccc4)CC3)cc(=O)c2c1` (stereo not drawn) [Example 7, 2-[1-[6-Methyl-4-oxo-2-(1-phenylcyclopropyl)chromen-8-yl]ethylamino]benzoic acid; 2,2,2-trifluoroacetic acid], for which the half-maximal inhibitory concentration (IC50) in assay [1] (Soy PI lipid substrate) is less than 0.5 µM; in assay [2] (Soy PI lipid substrate), more than 10 µM.

As a reminder, the IC50 is the midpoint of a concentration-inhibition curve. Higher therefore signals lower potency.
